Assay results published in paper PMC8271864, “Evaluation of Enzyme Inhibitory Activity of Flavonoids by Polydopamine-Modified Hollow Fiber-Immobilized Xanthine Oxidase” (Molecules, 2021).

Target: T1, Xanthine oxidase (XOD) (Bos taurus, UniProt P80457)
T1 construct: gene XDH; commercial XOD immobilized on polydopamine-modified hollow fiber (XOD@PDA@HF)
Experiment: immobilized enzyme inhibition at […], hypoxanthine substrate, HPLC detection of uric acid
Format: biochemical

T1 sequence (P80457 2-1332): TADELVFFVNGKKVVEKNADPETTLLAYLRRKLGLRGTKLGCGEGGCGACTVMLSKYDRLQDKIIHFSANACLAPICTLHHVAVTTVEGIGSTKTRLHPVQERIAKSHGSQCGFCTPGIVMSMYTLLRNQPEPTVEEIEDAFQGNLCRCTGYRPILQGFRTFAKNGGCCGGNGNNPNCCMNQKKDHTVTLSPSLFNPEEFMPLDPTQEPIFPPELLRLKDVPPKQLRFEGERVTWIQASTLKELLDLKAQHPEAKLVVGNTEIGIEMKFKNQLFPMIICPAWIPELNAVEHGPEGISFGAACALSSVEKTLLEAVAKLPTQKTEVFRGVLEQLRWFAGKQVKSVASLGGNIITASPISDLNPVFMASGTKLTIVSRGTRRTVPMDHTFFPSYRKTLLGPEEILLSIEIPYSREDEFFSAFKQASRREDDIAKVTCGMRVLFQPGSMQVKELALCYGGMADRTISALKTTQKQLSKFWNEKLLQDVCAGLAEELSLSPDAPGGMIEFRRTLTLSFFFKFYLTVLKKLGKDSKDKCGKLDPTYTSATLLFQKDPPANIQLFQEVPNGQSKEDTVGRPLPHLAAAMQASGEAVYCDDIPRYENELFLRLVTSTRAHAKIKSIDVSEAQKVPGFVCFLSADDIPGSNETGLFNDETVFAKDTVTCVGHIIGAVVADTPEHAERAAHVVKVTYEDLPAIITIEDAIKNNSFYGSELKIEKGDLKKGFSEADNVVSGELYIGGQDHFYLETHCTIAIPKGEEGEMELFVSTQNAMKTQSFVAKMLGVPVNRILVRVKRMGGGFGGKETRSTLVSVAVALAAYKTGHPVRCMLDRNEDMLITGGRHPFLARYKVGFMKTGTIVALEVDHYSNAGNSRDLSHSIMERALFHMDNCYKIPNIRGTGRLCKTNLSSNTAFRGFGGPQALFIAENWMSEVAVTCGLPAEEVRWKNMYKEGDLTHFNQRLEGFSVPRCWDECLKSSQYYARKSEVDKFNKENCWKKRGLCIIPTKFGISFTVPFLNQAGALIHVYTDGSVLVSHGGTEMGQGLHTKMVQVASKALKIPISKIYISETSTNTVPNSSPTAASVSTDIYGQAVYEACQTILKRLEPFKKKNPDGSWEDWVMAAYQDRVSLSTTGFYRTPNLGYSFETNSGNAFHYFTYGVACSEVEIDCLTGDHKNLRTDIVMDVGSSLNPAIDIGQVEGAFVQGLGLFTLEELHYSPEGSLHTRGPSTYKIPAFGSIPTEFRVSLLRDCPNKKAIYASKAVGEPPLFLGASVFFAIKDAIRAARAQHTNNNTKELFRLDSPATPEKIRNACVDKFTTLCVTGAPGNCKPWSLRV

Row | SMILES | inhibition at 1000 µM
1 | O=c1cc(-c2ccc(O)cc2)oc2cc(O)cc(O)c12 [Apigenin] | 80.98 ± 0.64%
2 | Oc1cc(O)c2c(c1)O[C@H](c1cc(O)c(O)c(O)c1)[C@H](O)C2 [Epigallocatechin] | 54.92 ± 0.41%
3 | O=c1c(-c2ccc(O)cc2)coc2c([C@@H]3O[C@H](CO)[C@@H](O)[C@H](O)[C@H]3O)c(O)ccc12 [Puerarin] | 61.1 ± 6.26%
4 | O=c1c(O)c(-c2ccc(O)c(O)c2)oc2cc(O)cc(O)c12 [Quercetin] | 79.9 ± 3.5%
